Test results reported in patent US6914045B2, “Glycopeptide antibiotics” (Wyeth Holdings Corporation, priority 2001, dated 2005).
≈ marks a conversion by molar mass, not a printed value.

How the values were obtained:
Assay in all cases: in vitro antibacterial evaluation, MIC by broth dilution
Assay type in all cases: cell-based
[1] = test system: Enterococcus sp.; settings: broth dilution, 18 hours at 35° C.
In short: (§1)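 Test organisms, which included recent clinical isolates resistant to methicillin, penicillin and/or vancomycin, were inoculated at 5×10^5 CFU/mL into Muller-Hinton II […] containing antibiotic at 64-0.06 μg/mL. Minimum inhibitory concentrations were then read as the lowest level inhibiting growth.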

[2] = test system: Staphylococcus sp.; settings: broth dilution, 18 hours at 35° C.
In short: as §1

[3] = test system: Streptococcus sp.; settings: broth dilution, 18 hours at 35° C.
In short: as §1

[4] = test system: Escherichia coli; settings: 18 hours at 35° C.

MIC Enterococcus avium (GC 4558) [1]: >128 µg/mL
MIC Enterococcus faecalis (ATCC 29212) [1]: >128 µg/mL
MIC Enterococcus faecalis (GC 2242) [1]: >128 µg/mL
MIC Enterococcus faecalis (GC 2691) [1]: >128 µg/mL
MIC Enterococcus faecalis (GC 3059) [1]: >128 µg/mL
MIC Enterococcus faecalis (GC 4552) [1]: >128 µg/mL
MIC Enterococcus faecalis (GC 4553) [1]: >128 µg/mL
MIC Enterococcus faecalis (GC 4554) [1]: >128 µg/mL
MIC Enterococcus faecalis (GC 6189) [1]: >128 µg/mL
MIC Enterococcus faecium (GC 2243) [1]: >128 µg/mL
MIC Enterococcus faecium (GC 4556) [1]: >128 µg/mL
MIC Enterococcus faecium (GC 4557) [1]: 64 µg/mL (≈ 44.6 µM)
MIC Enterococcus faecalis (ATCC 29212) ([1]; strain ATCC 29212): >128 µg/mL
MIC Enterococcus faecium (GC 2243) ([1]; strain GC 2243): >128 µg/mL
MIC Enterococcus faecalis (GC 4552) ([1]; strain GC 4552): >128 µg/mL
MIC Enterococcus faecalis (GC 4553) ([1]; strain GC 4553): >128 µg/mL
MIC Enterococcus faecalis (GC 4554) ([1]; strain GC 4554): >128 µg/mL
MIC Enterococcus faecium (GC 4556) ([1]; strain GC 4556): >128 µg/mL
MIC Enterococcus faecium (GC 4557) ([1]; strain GC 4557): 64 µg/mL (≈ 44.6 µM)
MIC Enterococcus avium (GC 4558) ([1]; strain GC 4558): >128 µg/mL
MIC Enterococcus faecalis (GC 6189) ([1]; strain GC 6189): >128 µg/mL
MIC Enterococcus faecalis (GC 2242) ([1]; inoculum 5×10^5 CFU/mL, strain GC 2242): >128 µg/mL
MIC Enterococcus faecalis (GC 2691) ([1]; inoculum 5×10^5 CFU/mL, strain GC 2691): >128 µg/mL
MIC Enterococcus faecalis (GC 3059) ([1]; inoculum 5×10^5 CFU/mL, strain GC 3059): >128 µg/mL
MIC Coagulase Negative Staphylococcus (GC 4547) [2]: 128 µg/mL (≈ 89.3 µM)
MIC Coagulase Negative Staphylococcus (GC 4548) [2]: 128 µg/mL (≈ 89.3 µM)
MIC Coagulase Negative Staphylococcus (GC 4549) [2]: 64 µg/mL (≈ 44.6 µM)
MIC Coagulase Negative Staphylococcus (GC 4551) [2]: 128 µg/mL (≈ 89.3 µM)
MIC Coagulase Negative Staphylococcus (GC 6257) [2]: 64 µg/mL (≈ 44.6 µM)
MIC Staphylococcus aureus (ATCC 29213) [2]: 128 µg/mL (≈ 89.3 µM)
MIC Staphylococcus aureus (GC 1131) [2]: >128 µg/mL
MIC Staphylococcus aureus (GC 3051) [2]: 128 µg/mL (≈ 89.3 µM)
MIC Staphylococcus aureus (GC 3053) [2]: >128 µg/mL
MIC Staphylococcus aureus (GC 4541) [2]: 128 µg/mL (≈ 89.3 µM)
MIC Staphylococcus aureus (GC 4542) [2]: 128 µg/mL (≈ 89.3 µM)
MIC Staphylococcus aureus (GC 4544) [2]: 128 µg/mL (≈ 89.3 µM)
MIC Staphylococcus aureus (GC 4545) [2]: 128 µg/mL (≈ 89.3 µM)
MIC Staphylococcus aureus-SMITH (GC 4543) [2]: 128 µg/mL (≈ 89.3 µM)
MIC Staphylococcus aureus (ATCC 29213) ([2]; strain ATCC 29213): 128 µg/mL (≈ 89.3 µM)
MIC Staphylococcus aureus (GC 1131) ([2]; strain GC 1131): >128 µg/mL
MIC Staphylococcus aureus (GC 3051) ([2]; strain GC 3051): 128 µg/mL (≈ 89.3 µM)
MIC Staphylococcus aureus (GC 3053) ([2]; strain GC 3053): >128 µg/mL
MIC Staphylococcus aureus (GC 4541) ([2]; strain GC 4541): 128 µg/mL (≈ 89.3 µM)
MIC Staphylococcus aureus (GC 4542) ([2]; strain GC 4542): 128 µg/mL (≈ 89.3 µM)
MIC Staphylococcus aureus-SMITH (GC 4543) ([2]; strain GC 4543): 128 µg/mL (≈ 89.3 µM)
MIC Staphylococcus aureus (GC 4544) ([2]; strain GC 4544): 128 µg/mL (≈ 89.3 µM)
MIC Staphylococcus aureus (GC 4545) ([2]; strain GC 4545): 128 µg/mL (≈ 89.3 µM)
MIC Coagulase Negative Staphylococcus (GC 4547) ([2]; strain GC 4547): 128 µg/mL (≈ 89.3 µM)
MIC Coagulase Negative Staphylococcus (GC 4548) ([2]; strain GC 4548): 128 µg/mL (≈ 89.3 µM)
MIC Coagulase Negative Staphylococcus (GC 4549) ([2]; strain GC 4549): 64 µg/mL (≈ 44.6 µM)
MIC Coagulase Negative Staphylococcus (GC 4551) ([2]; strain GC 4551): 128 µg/mL (≈ 89.3 µM)
MIC Coagulase Negative Staphylococcus (GC 6257) ([2]; strain GC 6257): 64 µg/mL (≈ 44.6 µM)
MIC Streptococcus agalactiae (GC 4564) [3]: 128 µg/mL (≈ 89.3 µM)
MIC Streptococcus pneumoniae (ATCC 6301) [3]: 64 µg/mL (≈ 44.6 µM)
MIC Streptococcus pneumoniae (GC 1894) [3]: 32 µg/mL (≈ 22.3 µM)
MIC Streptococcus pneumoniae (GC 4565) [3]: 64 µg/mL (≈ 44.6 µM)
MIC Streptococcus pyogenes (GC 4563) [3]: 128 µg/mL (≈ 89.3 µM)
MIC Streptococcus pneumoniae (ATCC 6301) ([3]; inoculum 5×10^5 CFU/mL, strain ATCC 6301): 64 µg/mL (≈ 44.6 µM)
MIC Streptococcus pneumoniae (GC 1894) ([3]; inoculum 5×10^5 CFU/mL, strain GC 1894): 32 µg/mL (≈ 22.3 µM)
MIC Streptococcus pyogenes (GC 4563) ([3]; inoculum 5×10^5 CFU/mL, strain GC 4563): 128 µg/mL (≈ 89.3 µM)
MIC Streptococcus agalactiae (GC 4564) ([3]; inoculum 5×10^5 CFU/mL, strain GC 4564): 128 µg/mL (≈ 89.3 µM)
MIC Streptococcus pneumoniae (GC 4565) ([3]; inoculum 5×10^5 CFU/mL, strain GC 4565): 64 µg/mL (≈ 44.6 µM)
MIC Escherichia coli (ATCC 25922) [4]: >128 µg/mL
MIC Escherichia coli (GC 4559) [4]: >128 µg/mL
MIC Escherichia coli (GC 4560) [4]: 32 µg/mL (≈ 22.3 µM)
Structure (SMILES): COc1ccc2cc(COC3C(OC4C(CO)OC(Oc5ccc(CC6NC(=O)C(C(C)c7ccccc7)NC(=O)CNC(=O)C(CO)NC(=O)C(CC7CNC(=N)N7C7OC(CO)C(O)C(O)C7O)NC(=O)C(CC7CNC(=N)N7)NC6=O)cc5)C(O)C4O)OC(CO)C(O)C3O)ccc2c1 (stereo not shown) [Example 245c]
MIC Staphylococcus haemolyticus (GC 4546) [2]: 128 µg/mL (≈ 89.3 µM)
MIC Staphylococcus haemolyticus (GC 4546) ([2]; strain GC 4546): 128 µg/mL (≈ 89.3 µM)
